Measured values taken from ChEMBL document CHEMBL1201862, “PubChem BioAssay data set” (2004).
Activity calls are given as the source filed them.

Columns and labels:
[1] = inhibitors of HIV Env-driven cell fusion, dose response, cherry-pick (AID 652057); assay type: functional, cell-based
[2] = ZM109 Env clade C HIV-1 fusion inhibitors, dose response, HeLa effector, CEM target cells, luciferase, cherry-pick (AID 652058); assay type: functional, cell-based
[3] = off-target signal loss in HeLa-CEM21 co-culture – HeLa F-luc CTL cells, cherry-picked, counter-screen for HIV-1 Env fusion inhibitor project, dose response (AID 652040); assay type: functional, cell-based;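 also: potency for signal decrease marking cytotoxic or nonspecific inhibition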
[4] = inhibitors of clade B AD8 Env fusion, dose response, cell-based, cherry-pick (AID 652062); assay type: functional;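 also: luciferase signal from cell-cell fusion driven by HIV-1 clade B AD8 Env; potency is for inhibitors of fusion seen as a drop in luminescence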
[5] = T. cruzi intracellular amastigote growth inhibition, dose response, imaging, CA-I/72 strain, bovine embryo skeletal muscle, dry powder (AID 651885); assay type: functional, cell-based
Beta-lactamase [6] = biological target: Beta-lactamase (Salmonella choleraesuis (strain SC-B67), UniProt Q5J463); test: Epi-absorbance-based counterscreen for selective VIM-2 inhibitors: dose response biochemical high throughput screening assay to identify inhibitors of TEM-1 serine-beta-lactamase.
Chain of Beta-lactamase (Salmonella choleraesuis (strain SC-B67), UniProt Q5J463) (Q5J463 whole entry): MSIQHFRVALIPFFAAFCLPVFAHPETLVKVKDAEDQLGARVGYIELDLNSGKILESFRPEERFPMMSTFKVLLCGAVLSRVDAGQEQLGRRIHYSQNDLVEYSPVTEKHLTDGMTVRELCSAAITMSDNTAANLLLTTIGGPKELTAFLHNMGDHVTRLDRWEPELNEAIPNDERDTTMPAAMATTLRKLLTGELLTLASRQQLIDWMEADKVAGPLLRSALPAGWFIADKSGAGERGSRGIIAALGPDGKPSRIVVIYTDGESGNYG

Beta-lactamase [7] = biological target: T1, Beta-lactamase (Pseudomonas aeruginosa, UniProt Q79MP6); test: […] counterscreen for selective VIM-2 inhibitors: dose response biochemical high throughput screening assay to identify inhibitors of IMP-1 metallo-beta-lactamase.
T1 sequence (Q79MP6 whole entry): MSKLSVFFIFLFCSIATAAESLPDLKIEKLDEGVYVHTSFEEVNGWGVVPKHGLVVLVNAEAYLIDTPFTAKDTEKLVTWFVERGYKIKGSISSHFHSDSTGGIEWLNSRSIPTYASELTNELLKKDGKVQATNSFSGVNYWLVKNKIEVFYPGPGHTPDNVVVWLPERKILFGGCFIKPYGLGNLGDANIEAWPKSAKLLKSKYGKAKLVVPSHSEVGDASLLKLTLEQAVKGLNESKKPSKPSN

Beta-lactamase [8] = biological target: T1, Beta-lactamase; test: IMP-1 metallo-beta-lactamase inhibitors, dose response, selectivity assay for VIM-2 inhibitor project, biochemical, epi-absorbance (AID 1920)
[9] = biological target: T2, Methionyl-tRNA synthetase, putative (Trypanosoma brucei brucei, UniProt Q38C91); assay type: functional, Trypanosoma brucei brucei strain 927/4 GUTat10.1
T2 sequence (Q38C91 whole entry): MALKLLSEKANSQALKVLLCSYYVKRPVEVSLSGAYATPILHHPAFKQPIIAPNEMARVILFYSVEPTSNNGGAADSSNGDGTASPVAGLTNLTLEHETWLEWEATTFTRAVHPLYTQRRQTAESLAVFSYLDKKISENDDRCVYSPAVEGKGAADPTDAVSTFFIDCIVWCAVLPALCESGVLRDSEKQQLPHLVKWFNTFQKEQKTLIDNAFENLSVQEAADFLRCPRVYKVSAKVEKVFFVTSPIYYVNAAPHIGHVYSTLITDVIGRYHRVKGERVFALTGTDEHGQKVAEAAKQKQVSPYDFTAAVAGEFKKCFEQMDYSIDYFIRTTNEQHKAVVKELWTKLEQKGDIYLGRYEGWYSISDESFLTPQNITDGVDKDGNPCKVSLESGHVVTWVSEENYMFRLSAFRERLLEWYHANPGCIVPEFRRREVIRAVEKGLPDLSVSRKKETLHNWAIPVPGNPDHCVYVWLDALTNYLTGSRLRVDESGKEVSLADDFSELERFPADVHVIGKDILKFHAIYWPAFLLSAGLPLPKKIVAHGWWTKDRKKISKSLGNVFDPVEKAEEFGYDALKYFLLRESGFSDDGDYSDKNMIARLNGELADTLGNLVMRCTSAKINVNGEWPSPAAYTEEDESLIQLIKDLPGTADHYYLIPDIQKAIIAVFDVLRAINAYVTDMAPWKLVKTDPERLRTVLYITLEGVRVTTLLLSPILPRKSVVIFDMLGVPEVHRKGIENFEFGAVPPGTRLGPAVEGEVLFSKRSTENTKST

[10] = Counterscreen for inhibitors of Trypanosoma brucei methionyl tRNA synthetase (MetRS): Luminescence-based cell-based high throughput dose response assay to identify compounds that are cytotoxic to Jurkat human T lymphocyte cells.; assay type: functional
[11] = biological target: T2, Methionyl-tRNA synthetase, putative; assay type: functional, Trypanosoma brucei brucei strain 927/4 GUTat10.1; remark: listed apart in the source
[12] = biological target: SWI/SNF-related matrix-associated actin-dependent regulator of chromatin subfamily A member 2 (Homo sapiens, UniProt P51531); test: Luminescence-based cell-based high throughput dose response assay to identify activators of the function of SWI/SNF related, matrix associated, actin dependent regulator of chromatin, subfamily a, member 2 (SMARCA2, BRM).; assay type: functional
Chain of SWI/SNF-related matrix-associated actin-dependent regulator of chromatin subfamily A member 2 (P51531 whole entry, the tested form may be a part): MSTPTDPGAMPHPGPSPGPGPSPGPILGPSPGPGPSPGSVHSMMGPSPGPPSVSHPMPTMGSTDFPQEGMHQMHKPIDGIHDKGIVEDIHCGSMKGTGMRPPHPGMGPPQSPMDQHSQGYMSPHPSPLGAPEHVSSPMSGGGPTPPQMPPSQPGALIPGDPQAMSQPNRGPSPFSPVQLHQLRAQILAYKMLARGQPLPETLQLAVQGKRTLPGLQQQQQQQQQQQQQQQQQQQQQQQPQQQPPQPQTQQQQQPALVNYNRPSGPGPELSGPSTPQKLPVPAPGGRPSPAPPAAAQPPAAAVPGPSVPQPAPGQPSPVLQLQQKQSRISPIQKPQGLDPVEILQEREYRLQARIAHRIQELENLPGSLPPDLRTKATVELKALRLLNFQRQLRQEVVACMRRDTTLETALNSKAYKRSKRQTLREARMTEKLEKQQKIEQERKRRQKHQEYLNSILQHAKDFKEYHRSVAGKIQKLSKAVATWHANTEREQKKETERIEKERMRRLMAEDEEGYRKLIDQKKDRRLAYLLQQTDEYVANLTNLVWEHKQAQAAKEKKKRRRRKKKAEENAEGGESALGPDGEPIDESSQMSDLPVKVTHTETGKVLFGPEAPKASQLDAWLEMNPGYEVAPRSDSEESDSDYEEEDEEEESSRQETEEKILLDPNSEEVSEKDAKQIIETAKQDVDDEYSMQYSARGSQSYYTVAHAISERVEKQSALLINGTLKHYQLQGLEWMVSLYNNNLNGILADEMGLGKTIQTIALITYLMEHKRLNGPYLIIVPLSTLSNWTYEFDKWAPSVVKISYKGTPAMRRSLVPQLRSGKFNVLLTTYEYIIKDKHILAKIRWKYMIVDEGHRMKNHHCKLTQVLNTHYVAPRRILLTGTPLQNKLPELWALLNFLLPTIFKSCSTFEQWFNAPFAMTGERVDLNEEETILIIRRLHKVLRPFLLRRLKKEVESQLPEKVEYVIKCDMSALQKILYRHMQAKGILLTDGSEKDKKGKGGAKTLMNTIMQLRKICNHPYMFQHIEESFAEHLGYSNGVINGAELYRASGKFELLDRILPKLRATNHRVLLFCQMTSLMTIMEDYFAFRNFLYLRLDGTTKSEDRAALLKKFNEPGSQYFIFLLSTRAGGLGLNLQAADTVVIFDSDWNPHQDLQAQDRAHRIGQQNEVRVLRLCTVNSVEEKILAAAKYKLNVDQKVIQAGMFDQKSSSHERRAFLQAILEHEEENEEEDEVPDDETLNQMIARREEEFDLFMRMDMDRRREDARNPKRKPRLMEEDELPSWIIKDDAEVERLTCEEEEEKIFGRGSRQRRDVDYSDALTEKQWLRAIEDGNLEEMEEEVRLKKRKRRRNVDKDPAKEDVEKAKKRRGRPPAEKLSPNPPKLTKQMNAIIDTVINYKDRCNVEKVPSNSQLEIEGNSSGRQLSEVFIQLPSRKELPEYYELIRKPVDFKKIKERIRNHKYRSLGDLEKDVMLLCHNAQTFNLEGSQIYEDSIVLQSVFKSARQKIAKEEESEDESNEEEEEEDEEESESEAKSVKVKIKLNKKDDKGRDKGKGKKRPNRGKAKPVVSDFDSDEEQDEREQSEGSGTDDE

[13] = Fluorescence-based cell-based high throughput dose response assay for inhibitors of the interaction of nucleotide-binding oligomerization domain containing 2 (NOD2) and the receptor-interacting serine-threonine kinase 2 (RIPK2).; assay type: functional; details: Homo sapiens
[14] = Counterscreen for activators of the function of SWI/SNF related, matrix associated, actin dependent regulator of chromatin, subfamily a, member 2 (SMARCA2, BRM): Luminescence-based cell-based high throughput dose response assay to identify non-selective compounds using the VP16 reporter assay.; assay type: functional
[15] = biological target: T3, Probable nicotinate-nucleotide adenylyltransferase (Staphylococcus aureus (strain N315), UniProt P65502); assay type: functional, Staphylococcus aureus subsp. aureus N315; details: read-out: IC50_Mean;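 as to IC50 Mean: confirmatory dose-response retesting of NadD inhibitor hits first found in an ultra-high-throughput screen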
T3 sequence (P65502 whole entry): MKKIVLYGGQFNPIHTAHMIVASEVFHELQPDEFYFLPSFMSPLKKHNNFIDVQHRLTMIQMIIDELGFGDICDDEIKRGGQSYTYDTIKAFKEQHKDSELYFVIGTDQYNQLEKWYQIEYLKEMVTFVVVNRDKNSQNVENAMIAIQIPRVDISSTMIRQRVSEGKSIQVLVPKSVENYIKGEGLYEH

[16] = biological target: T3, Probable nicotinate-nucleotide adenylyltransferase; assay type: functional, Staphylococcus aureus subsp. aureus N315
A549 = test: A549 cell toxicity, dose response, cytotoxicity control, plate reader, cherry-pick samples (AID 687028); assay type: functional, cell-based; details: Homo sapiens
Vero = test: Vero cell toxicity, dose response, cytotoxicity control, plate reader, cherry-pick samples (AID 687020); assay type: functional, cell-based; details: Chlorocebus sabaeus
Fatty acid synthase [17] = biological target: T4, Fatty acid synthase (Homo sapiens, UniProt P49327); test: FAS thioesterase domain inhibitors, dose response, biochemical, endpoint fluorescence intensity, uHTS hits (AID 624327); assay type: functional;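 also: fluorescence from hydrolysis of an O-methyl fluorescein acyl ester substrate by the enzyme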
Beta Lactamase = Beta Lactamase (Pseudomonas aeruginosa, UniProt Q932Y6); test: beta-lactamase reporter inhibitor potency, dose response, artefact control for NOD2-RIPK2 interaction inhibitor project, BLA reporter cells, FRET fluorescence (AID 651552); assay type: functional, cell-based
Chain of Beta Lactamase (Q932Y6 whole entry, the tested form may be a part): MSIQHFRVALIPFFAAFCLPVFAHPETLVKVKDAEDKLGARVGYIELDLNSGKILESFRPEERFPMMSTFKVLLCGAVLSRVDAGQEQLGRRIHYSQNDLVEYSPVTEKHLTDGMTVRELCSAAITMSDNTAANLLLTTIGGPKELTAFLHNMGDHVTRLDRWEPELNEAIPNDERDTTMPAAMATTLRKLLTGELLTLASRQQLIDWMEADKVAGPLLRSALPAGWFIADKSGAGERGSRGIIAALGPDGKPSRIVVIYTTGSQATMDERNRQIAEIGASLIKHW

Fatty acid synthase [18] = biological target: T4, Fatty acid synthase; test: FAS thioesterase domain inhibitors, dose response, biochemical, kinetic fluorescence intensity (AID 624326); assay type: functional;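 also: rate of fluorescence rise from hydrolysis of a fluorogenic O-methyl fluorescein ester substrate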
[19] = biological target: Glucose-6-phosphate 1-dehydrogenase (Homo sapiens, UniProt P11413); test: human G6PD enzyme inhibitors, dose response, selectivity assay for P. falciparum G6PD inhibitor project, biochemical, fluorescence (AID 504792); assay type: functional
Chain of Glucose-6-phosphate 1-dehydrogenase (P11413 whole entry): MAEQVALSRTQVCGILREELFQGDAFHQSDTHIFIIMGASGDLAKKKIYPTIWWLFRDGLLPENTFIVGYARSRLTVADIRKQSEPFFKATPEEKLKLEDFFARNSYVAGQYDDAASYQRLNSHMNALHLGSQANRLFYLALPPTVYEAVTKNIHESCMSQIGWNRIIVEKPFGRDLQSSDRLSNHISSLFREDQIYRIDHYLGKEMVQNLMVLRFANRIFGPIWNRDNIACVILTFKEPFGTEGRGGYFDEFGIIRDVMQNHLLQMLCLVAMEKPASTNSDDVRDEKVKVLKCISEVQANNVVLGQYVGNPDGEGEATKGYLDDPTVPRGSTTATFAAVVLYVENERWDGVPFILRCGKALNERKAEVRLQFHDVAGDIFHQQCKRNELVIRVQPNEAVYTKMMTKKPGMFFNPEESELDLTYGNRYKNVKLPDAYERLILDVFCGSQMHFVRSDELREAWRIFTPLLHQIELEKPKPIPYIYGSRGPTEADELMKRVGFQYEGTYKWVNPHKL

[20] = HeLa cell cytotoxicity, dose response, cytotoxicity control for MgcRacGAP inhibitor project (AID 624300); assay type: functional
[21] = biological target: T5, Rac GTPase-activating protein 1 (Homo sapiens, UniProt Q9H0H5); test: MgcRacGAP GTPase-activating activity inhibitors, confirmation, biochemical, ADP Hunter fluorescence, primary and confirmatory (AID 624330); assay type: functional
T5 sequence (Q9H0H5 whole entry): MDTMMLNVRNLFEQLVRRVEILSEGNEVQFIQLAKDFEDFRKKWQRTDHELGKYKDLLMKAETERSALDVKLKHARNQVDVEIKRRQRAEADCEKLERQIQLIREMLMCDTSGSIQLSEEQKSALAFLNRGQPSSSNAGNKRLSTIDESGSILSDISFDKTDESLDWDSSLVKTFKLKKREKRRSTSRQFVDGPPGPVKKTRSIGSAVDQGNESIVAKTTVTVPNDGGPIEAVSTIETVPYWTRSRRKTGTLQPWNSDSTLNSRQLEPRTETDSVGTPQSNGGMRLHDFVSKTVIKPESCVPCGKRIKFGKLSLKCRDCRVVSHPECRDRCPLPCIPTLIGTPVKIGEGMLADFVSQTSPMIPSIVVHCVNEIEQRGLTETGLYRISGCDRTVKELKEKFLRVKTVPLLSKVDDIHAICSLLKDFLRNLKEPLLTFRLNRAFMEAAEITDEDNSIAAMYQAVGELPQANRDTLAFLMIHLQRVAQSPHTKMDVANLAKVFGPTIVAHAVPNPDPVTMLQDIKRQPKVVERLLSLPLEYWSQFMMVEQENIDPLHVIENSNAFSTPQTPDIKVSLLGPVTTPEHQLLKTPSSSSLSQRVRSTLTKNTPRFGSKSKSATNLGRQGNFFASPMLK

Hexokinase = biological target: T6, Hexokinase (Trypanosoma brucei, UniProt Q38C41); test: Confirmation assay for inhibitors of Trypanosoma brucei hexokinase 1-Analogue-first series. [Related pubchem assays (depositor defined):AID1430, AID1632, AID2516, AID2560, AID2579, AID2600, AID449725, AID492951]; assay type: functional
T6 sequence (Q38C41 whole entry): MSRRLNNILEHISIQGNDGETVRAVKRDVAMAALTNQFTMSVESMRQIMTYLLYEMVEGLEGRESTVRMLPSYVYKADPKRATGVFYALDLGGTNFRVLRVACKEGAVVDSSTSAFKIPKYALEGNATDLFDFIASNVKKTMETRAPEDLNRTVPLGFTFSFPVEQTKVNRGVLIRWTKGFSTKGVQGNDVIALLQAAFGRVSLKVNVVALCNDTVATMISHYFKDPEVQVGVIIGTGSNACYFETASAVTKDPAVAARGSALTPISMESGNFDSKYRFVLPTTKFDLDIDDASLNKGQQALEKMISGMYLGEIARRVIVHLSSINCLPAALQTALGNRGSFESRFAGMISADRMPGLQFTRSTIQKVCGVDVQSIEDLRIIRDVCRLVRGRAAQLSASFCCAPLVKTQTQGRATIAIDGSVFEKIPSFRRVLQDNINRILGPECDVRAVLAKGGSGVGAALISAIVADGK

Steroidogenic factor 1 = Steroidogenic factor 1 (Homo sapiens, UniProt Q13285); test: Counterscreen for inverse agonists of the liver receptor homolog-1 (LRH-1; NR5A2): Luminescence-based cell-based high throughput dose response assay to identify inverse agonists of the Steroidogenic Factor 1 Nuclear Receptor (SF1; NR5A1).; assay type: functional
Chain of Steroidogenic factor 1 (Q13285 whole entry): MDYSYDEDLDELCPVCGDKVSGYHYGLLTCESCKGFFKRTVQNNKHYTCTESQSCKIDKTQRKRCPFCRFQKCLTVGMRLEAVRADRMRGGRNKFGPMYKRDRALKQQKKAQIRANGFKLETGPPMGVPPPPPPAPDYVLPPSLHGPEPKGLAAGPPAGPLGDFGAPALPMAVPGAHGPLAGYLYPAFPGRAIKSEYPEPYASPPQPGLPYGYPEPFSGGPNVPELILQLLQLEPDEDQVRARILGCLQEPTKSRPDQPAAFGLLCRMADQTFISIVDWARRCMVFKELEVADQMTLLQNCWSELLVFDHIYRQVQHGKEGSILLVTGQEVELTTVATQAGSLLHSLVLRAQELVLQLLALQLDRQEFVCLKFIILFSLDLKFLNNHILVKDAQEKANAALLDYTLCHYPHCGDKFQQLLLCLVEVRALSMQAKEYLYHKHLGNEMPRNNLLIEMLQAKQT

[22] = StAR promoter reporter inhibition counter-screen, dose response, counter-screen for LRH-1 inverse agonist project, cell-based, luminescence, luciferase reporter (AID 651969); assay type: functional
[23] = biological target: Nuclear receptor subfamily 5 group A member 2 (Homo sapiens, UniProt O00482); assay type: functional, cell-based;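 also: HEK293T cells transfected with LRH-1 and a StAR promoter luciferase reporter; potency for inhibitors that lower LRH-1 driven reporter light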
Chain of Nuclear receptor subfamily 5 group A member 2 (O00482 whole entry): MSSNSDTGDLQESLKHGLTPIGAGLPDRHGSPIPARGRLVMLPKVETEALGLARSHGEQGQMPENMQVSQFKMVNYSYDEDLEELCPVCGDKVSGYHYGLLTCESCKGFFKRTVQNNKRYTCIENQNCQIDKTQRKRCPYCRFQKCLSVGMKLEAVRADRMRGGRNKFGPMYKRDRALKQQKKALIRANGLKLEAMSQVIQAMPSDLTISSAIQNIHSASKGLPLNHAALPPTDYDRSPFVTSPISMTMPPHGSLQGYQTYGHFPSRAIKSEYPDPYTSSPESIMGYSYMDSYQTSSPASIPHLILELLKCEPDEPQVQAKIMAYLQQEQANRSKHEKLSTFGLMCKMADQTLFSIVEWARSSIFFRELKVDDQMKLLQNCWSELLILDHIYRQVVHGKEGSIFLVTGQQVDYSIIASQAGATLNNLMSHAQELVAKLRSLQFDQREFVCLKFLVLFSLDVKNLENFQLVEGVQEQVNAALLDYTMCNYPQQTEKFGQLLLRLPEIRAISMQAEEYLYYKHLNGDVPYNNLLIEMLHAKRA

[24] = LGR2 antagonists, dose response, cell-based, HEK293, CRE-luciferase reporter, cherry pick, set 2 (AID 743343); assay type: functional;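 also: transfected cells were stimulated with diluted bursicon conditioned medium after compound addition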
[25] = MC4R antagonists, dose response, counter-screen for LGR2 antagonist project, cell-based, plate reader, cherry pick (AID 743444); assay type: functional;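 also: transfected HEK 293 cells stimulated with alpha-MSH peptide; potency of inhibitors of the alpha-MSH evoked signal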
[26] = biological target: Nuclear receptor subfamily 0 group B member 1 (Homo sapiens, UniProt P51843); assay type: functional, cell-based;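 also: HEK293T cells transfected with SF-1 and DAX-1 plus StAR promoter luciferase reporter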
Chain of Nuclear receptor subfamily 0 group B member 1 (P51843 whole entry): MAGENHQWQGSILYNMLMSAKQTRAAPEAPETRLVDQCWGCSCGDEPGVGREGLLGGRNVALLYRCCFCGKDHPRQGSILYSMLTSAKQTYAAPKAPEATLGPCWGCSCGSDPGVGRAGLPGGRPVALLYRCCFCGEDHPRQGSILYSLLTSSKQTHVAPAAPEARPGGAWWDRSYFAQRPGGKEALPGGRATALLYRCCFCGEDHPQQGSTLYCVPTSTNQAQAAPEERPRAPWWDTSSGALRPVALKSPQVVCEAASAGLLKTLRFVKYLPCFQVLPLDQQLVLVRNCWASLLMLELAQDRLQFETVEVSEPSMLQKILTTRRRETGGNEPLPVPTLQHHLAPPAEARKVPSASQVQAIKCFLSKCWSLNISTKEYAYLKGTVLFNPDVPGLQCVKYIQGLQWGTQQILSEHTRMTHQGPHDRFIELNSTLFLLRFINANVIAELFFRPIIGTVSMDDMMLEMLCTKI

cells = assay type: functional, cell-based

COc1cccc(Cl)c1NC(=O)N1CCc2c([nH]c3ccccc23)C1C(F)(F)F (configuration not stated)
AC50 [1]: 4.56 µM (active) | AC50 [2]: 15 µM (active) | AC50 [3]: 2.65 µM (active) | AC50 [4]: 36.8 µM (active)

C[C@@H]1CN([C@@H](C)CO)C(=O)c2cccc(NC(=O)c3ccncc3)c2O[C@H]1CN(C)Cc1ccc(C(F)(F)F)cc1
IC50 [5]: 10 µM (inconclusive)

CCOC(=O)N=S(N)(=O)c1ccccc1 (configuration not stated)
IC50 (Beta-lactamase [6]): > 59.6 µM (inactive) | IC50 (Beta-lactamase [7]): > 59.6 µM (inactive) | IC50 (Beta-lactamase [8]): > 59.6 µM (inactive)

CN(C)S(=O)(=O)c1cccc(NC(=O)Cc2ccc(Cl)cc2)c1
IC50 [9]: 32.3 µM (inactive) | IC50 [10]: 83.3 µM (inactive) | IC50 [11]: 72.3 µM (inactive)

CC(C)N(C)C(=O)c1cccc(NC(=O)c2ccncc2)c1OCCCN(C)C(=O)OC(C)(C)C
IC50 [5]: 10.2 µM (inconclusive)

CN(CC(=O)Nc1ccccc1Cl)C(=O)COC(=O)c1nc(Cl)c(Cl)c(Cl)c1Cl
EC50 [12]: > 91.2 µM (inactive) | IC50 [13]: 8.62 µM (active) | EC50 [14]: > 91.2 µM (inactive)

CCc1cccc2c1NC(=O)C21N2CCCC2C(C(=O)c2ccc3ccccc3c2)C12C(=O)Nc1ccccc12 (configuration not stated)
IC50 [15]: 35.7 µM (active) | IC50 [16]: 16.2 µM (active)

COc1cc2c(cc1OC)C(C)N(C(=O)c1nccnc1C(=O)O)CC2 (configuration not stated)
IC50 (Beta-lactamase [6]): > 59.6 µM (inactive) | IC50 (Beta-lactamase [7]): > 59.6 µM (inactive) | IC50 (Beta-lactamase [8]): > 59.6 µM (inactive)

CCC(C)[C@H](NC(=O)[C@@H]1Cc2ccccc2CN1)C(=O)NCc1ccc(C)cc1 (some centres not stated)
AC50 (A549): 20.9 µM (active) | AC50 (Vero): 29.5 µM (active)

CCOC(=O)[C@]12Cc3ccc(C)cc3[C@H]1N(C1CCCCC1)C(=O)c1cc(OC)ccc12
IC50 [13]: 2.32 µM (active) | IC50 (Fatty acid synthase [17]): 5.7 µM (active) | IC50 (Beta Lactamase): 19.1 µM (inactive) | IC50 (Fatty acid synthase [18]): 5.14 µM (active)

COc1ccc(-n2sc3ccccc3c2=O)cc1
IC50 [19]: 9.6 µM (active) | EC50 [12]: > 91.2 µM (inactive) | IC50 [13]: 5.79 µM (active) | IC50 (Beta Lactamase): 27 µM (inactive) | CC50 [20]: 79.7 µM (active) | EC50 [14]: > 91.2 µM (inactive) | IC50 [21]: 34.5 µM (active) | IC50 (Hexokinase): 5.35 µM (active)

COc1ccc(OCCNC(=O)C2(C)CCN2Cc2ccc(SC)cc2)cc1 (configuration not stated)
IC50 (Steroidogenic factor 1): 3.51 µM (active) | IC50 [22]: 35.9 µM (inactive) | IC50 [23]: 5.57 µM (active)

Cc1cccc(NC(=O)COC(=O)Cc2cccs2)c1C
IC50 (Steroidogenic factor 1): 7.35 µM (active) | IC50 [22]: 35.9 µM (inactive) | IC50 [23]: 12.8 µM (inactive)

O=C(NCCc1ccccc1)c1ccc2c(c1)OCO2
AC50 [24]: 2.31 µM (active) | AC50 [25]: 2.88 µM (active)

O=C(Nc1ccc(Cl)cn1)c1ccc2nccnc2c1
IC50 [26]: > 67.6 µM (inactive) | IC50 (cells): > 67.6 µM (inactive)

C/C(CC(=O)Nc1cccc(Br)c1)=N\NC(=O)c1ccc(O)cc1O
IC50 [9]: 0.756 µM (active) | IC50 [10]: 83.3 µM (inactive) | IC50 [11]: 1.23 µM (active)
